# Measured values reported in patent US12448394B2, “Heterocyclic pyrazole derivatives as type III receptor tyrosine kinase inhibitors” (DEVELOPMENT CENTER FOR BIOTECHNOLOGY, priority 2019, dated 2025).
# Key:
# [1] = system: HCC827 NSCLC cell with EGFR exon 19 deletion mutation; experiment: HCC827 cell proliferation assay (counter screen); assay type: cell-based, human; details: Homo sapiens, HCC827 cells, 72 hours treatment, CellTiter96, read-out: anti-proliferation activity HCC827 EGFR Exon19 del, IC50 ranking
# Outline: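 HCC827 cells (EGFR exon 19 deletion) were seeded at 8000 cells/well in RPMI1640 with 10% FBS, then exposed to increasing compound concentrations for 72 h at 37 °C. Viability was read by CellTiter96 AQueous One (MTS), absorbance 490 nm after 2–4 h.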
# [2] = system: MV4-11 human acute myeloid leukemia cell with FLT3-ITD mutation; experiment: MV4-11 cell proliferation assay (CellTiter 96); assay type: cell-based; details: Homo sapiens, MV4-11, 72 h, MV4-11 cells, 72 hours treatment, CellTiter96; read-out: anti-proliferation activity MV4-11 (FLT3-ITD), IC50 ranking
# Outline: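 Cells seeded at 6500/well in IMDM with 10% heat-inactivated FBS, left overnight at 37 °C, 5% CO2, then exposed to increasing compound concentrations for 72 h. Viability read as absorbance at 490 nm after 2–4 h with CellTiter96 AQueous One reagent.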
# [3] = system: THP-1 human acute monocytic leukemia cell with NRAS G12D mutation; experiment: THP-1 cell proliferation assay (counter screen); assay type: cell-based; details: Homo sapiens, THP-1 cells, 72 hours treatment, CellTiter96, read-out: anti-proliferation activity THP-1 NRAS N12D, IC50 ranking
# Outline: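 THP-1 cells (NRAS G12D, growth independent of class III RTK signaling) seeded at 5000 cells/well overnight, then exposed to increasing compound concentrations for 72 h at 37° C, 5% CO2. Viability read by CellTiter96 AQueous One reagent (2–4 h) as absorbance at 490 nm.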
SMILES,IC50 [1],IC50 [2],IC50 [3]
"C[C@H]1COCCN1Cc1ccc(-c2cc3c(s2)Cc2c(-c4ccc5cnn(C)c5c4)n[nH]c2-3)cc1 [Compound 75, (S)-3-methyl-4-(4-(3-(1-methyl-1H-indazol-6-yl)-1,4-dihydrothieno [2′,3′:4,5]cyclopenta [1,2-c]pyrazol-6-yl)benzyl)morpholine]",> 10 µM,< 30 nM,> 10 µM
"Cn1ncc2ccc(-c3n[nH]c4c3Cc3sc(-c5ccc(C=C6CCOCC6)cc5)cc3-4)cc21 [Compound 76, 3-(1-methyl-1H-indazol-6-yl)-6-(4-((tetrahydro-4H-pyran-4-ylidene)methyl)phenyl)-1,4-dihydrothieno[2′,3′:4,5] cyclopenta[1,2-c]pyrazole]",> 10 µM,300 to 1000 nM,> 10 µM
"Cn1ncc2ccc(-c3n[nH]c4c3Cc3sc(-c5ccc(CC6CCOCC6)cc5)cc3-4)cc21 [Compound 77, 3-(1-methyl-1H-indazol-6-yl)-6-(4-((tetrahydro-2H-pyran-4-yl)methyl)phenyl)-1,4-dihydrothieno [2′,3′:4,5]cyclopenta [1,2-c]pyrazole]",> 10 µM,100 to 300 nM,1 to 10 µM
"Cn1ncc2ccc(-c3n[nH]c4c3Cc3sc(N5CCOCC5)cc3-4)cc21 [Compound 78, 4-(3-(1-methyl-1H-indazol-6-yl)-1,4-dihydro-thieno[2′,3′:4,5]cyclopenta [1,2-c]pyrazol-6-yl) morpholine]",> 10 µM,< 30 nM,> 10 µM
"Cn1ncc2ccc(-c3n[nH]c4c3Cc3sc(N5CCOCC5=O)cc3-4)cc21 [Compound 79, 4-(3-(1-methyl-1H-indazol-6-yl)-1,4-dihydro-thieno[2′,3′:4,5]cyclopenta [1,2-c]pyrazol-6-yl) morpholin-3-one]",1 to 10 µM,< 30 nM,> 10 µM
"Cn1ncc2ccc(-c3n[nH]c4c3Cc3sc(-c5ccc(CN6CCC(N7CCOCC7)CC6)cc5)cc3-4)cc21 [Compound 80, 4-(1-(4-(3-(1-methyl-1H-indazol-6-yl)-1,4-dihydro-thieno[2′,3′:4,5]cyclopenta [1,2-c]pyrazol-6-yl)benzyl)piperidin-4-yl) morpholine]",> 10 µM,< 30 nM,> 10 µM
"Cn1ncc2ccc(-c3n[nH]c4c3Cc3sc(C5CCNCC5)cc3-4)cc21 [Compound 96, 3-(1-methyl-1H-indazol-6-yl)-6-(piperidin-4-yl)-1,4-dihydrothieno [2′,3′:4,5]cyclopenta [1,2-c]pyrazole]",1 to 10 µM,< 30 nM,0.3 to 1 µM
"Cn1ncc2ccc(-c3n[nH]c4c3Cc3sc(-c5ccc(CN6CCCOCC6)cc5)cc3-4)cc21 [Compound 97, 4-(4-(3-(1-methyl-1H-indazol-6-yl)-1,4-dihydro-thieno[2′,3′:4,5]cyclopenta [1,2-c]pyrazol-6-yl)benzyl)-1,4-oxazepane]",> 10 µM,< 30 nM,1 to 10 µM
"Cn1ncc2ccc(-c3n[nH]c4c3Cc3sc(C5CCN(C(=O)CN6CCOCC6)CC5)cc3-4)cc21 [Compound 98, 1-(4-(3-(1-methyl-1H-indazol-6-yl)-1,4-dihydro-thieno[2′,3′:4,5]cyclopenta [1,2-c]pyrazol-6-yl)piperidin-1-yl)-2-morpholinoethan-1-one]",> 10 µM,< 30 nM,0.3 to 1 µM
"Cn1ncc2ccc(-c3n[nH]c4c3Cc3sc(-c5ccc(CN6CCCC6)cc5)cc3-4)cc21 [Compound 99, 3-(1-methyl-1H-indazol-6-yl)-6-(4-(pyrrolidin-1-ylmethyl)phenyl)-1,4-dihydrothieno[2′,3′:4,5] cyclopenta[1,2-c]pyrazole]",> 10 µM,< 30 nM,1 to 10 µM
"Cn1ncc2ccc(-c3n[nH]c4c3Cc3sc(-c5ccc(CN6CCCCC6)cc5)cc3-4)cc21 [Compound 100, 3-(1-methyl-1H-indazol-6-yl)-6-(4-(piperidin-1-ylmethyl)phenyl)-1,4-dihydrothieno[2′,3′:4,5] cyclopenta[1,2-c]pyrazole]",> 10 µM,< 30 nM,1 to 10 µM
"Cn1ncc2ccc(-c3n[nH]c4c3Cc3sc(-c5ccc(CN6CC7(COC7)C6)cc5)cc3-4)cc21 [Compound 102, 6-(4-(3-(1-methyl-1H-indazol-6-yl)-1,4-dihydro-thieno[2′,3′:4,5]cyclopenta [1,2-c]pyrazol-6-yl)benzyl)-2-oxa-6-azaspiro [3.3]heptane]",> 10 µM,30 to 100 nM,> 10 µM
"Cn1ncc2ccc(-c3n[nH]c4c3Cc3sc(-c5ccc(CN6CCC6)cc5)cc3-4)cc21 [Compound 103, 6-(4-(azetidin-1-ylmethyl)phenyl)-3-(1-methyl-1H-indazol-6-yl)-1,4-dihydro-thieno[2′,3′:4,5]cyclopenta [1,2-c]pyrazole]",> 10 µM,< 30 nM,> 10 µM
"Cn1ncc2ccc(-c3n[nH]c4c3Cc3sc(-c5ccc(CN6CC(F)(F)C6)cc5)cc3-4)cc21 [Compound 104, 6-(4-((3,3-difluoroazeti-din-1-yl)methyl)phenyl)-3-(1-methyl-1H-indazol-6-yl)-1,4-dihydrothieno [2′,3′:4,5]cyclopenta [1,2-c]pyrazole]",> 10 µM,30 to 100 nM,1 to 10 µM
"COC1CN(Cc2ccc(-c3cc4c(s3)Cc3c(-c5ccc6cnn(C)c6c5)n[nH]c3-4)cc2)C1 [Compound 105, 6-(4-((3-methoxyazeti-din-1-yl)methyl)phenyl)-3-(1-methyl-1H-indazol-6-yl)-1,4-dihydrothieno [2′,3′:4,5]cyclopenta [1,2-c]pyrazole]",> 10 µM,< 30 nM,> 10 µM
